In ChEMBL document CHEMBL1154119, “Rational design, synthesis and characterization of potent, non-peptidic Smac mimics/XIAP inhibitors as proapoptotic agents for cancer therapy” (Bioorg Med Chem, 2009):

What was measured:
HL-60 = test: Cytotoxicity against human HL60 cells after 96 hrs by MTT assay; details: HL-60, 96 h
PC-3 = test: Cytotoxicity against human PC3 cells after 96 hrs by MTT assay; details: PC-3, 96 h
MDA-MB-231 = test: cells; details: Homo sapiens, MDA-MB-231, 96 h
Description: Cytotoxicity against human MDA-MB-231 cells after 96 hrs by MTT assay

[1] = Metabolic stability of compound in phosphate buffer in presence of human CYP3A4 and NADPH; assay type: ADME
[2] = biological target: T1, E3 ubiquitin-protein ligase XIAP (Homo sapiens, UniProt P98170)
T1 sequence (P98170 whole entry): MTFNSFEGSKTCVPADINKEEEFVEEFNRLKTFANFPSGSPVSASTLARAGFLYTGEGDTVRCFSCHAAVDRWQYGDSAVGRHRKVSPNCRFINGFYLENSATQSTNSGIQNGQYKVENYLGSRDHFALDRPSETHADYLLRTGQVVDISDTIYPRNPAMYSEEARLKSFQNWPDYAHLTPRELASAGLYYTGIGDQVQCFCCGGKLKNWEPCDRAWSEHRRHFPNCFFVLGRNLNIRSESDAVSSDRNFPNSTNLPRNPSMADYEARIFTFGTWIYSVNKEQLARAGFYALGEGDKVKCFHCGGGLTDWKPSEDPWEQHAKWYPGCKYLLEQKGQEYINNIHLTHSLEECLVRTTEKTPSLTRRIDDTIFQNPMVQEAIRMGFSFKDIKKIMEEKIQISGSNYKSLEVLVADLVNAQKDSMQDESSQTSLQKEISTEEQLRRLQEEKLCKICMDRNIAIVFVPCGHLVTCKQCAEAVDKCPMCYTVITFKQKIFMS
Description: Binding affinity to human recombinant XIAP linker BIR2-BIR3 expressed in Escherichia coli BL21 by fluorescence polarization assay

[3] = Solubility at pH 7.4; assay type: physicochemical; details: buffer
[4] = biological target: T1, E3 ubiquitin-protein ligase XIAP; remark: listed apart in the source
Description: Binding affinity to human recombinant XIAP BIR3 domain expressed in Escherichia coli BL21 by fluorescence polarization assay

[5] = Solubility at pH 3; assay type: physicochemical; details: buffer

Row | SMILES | IC50 (HL-60) | IC50 (PC-3) | IC50 (MDA-MB-231) | Stability [1] | IC50 [2] | solubility [3] | IC50 [4] | solubility [5]
1 | CC[C@H](NC)C(=O)N[C@H]1CCC[C@H]2CC[C@@H](C(=O)NC(c3ccccc3)c3ccccc3)N2C1=O | 20.2 µM | 56.9 µM | 0.146 µM | 83% |  |  |  | 
2 | CC[C@H](N)C(=O)N[C@H]1CCC[C@H]2CC[C@@H](C(=O)NC(c3ccccc3)c3ccccc3)N2C1=O | 24.5 µM | > 100 µM | > 100 µM | 87% |  |  |  | 
3 | CC[C@H](NC)C(=O)N[C@@H]1C(=O)N2[C@@H](CC[C@@H]1CO)CC[C@H]2C(=O)NC(c1ccccc1)c1ccccc1 | 26.1 µM | > 100 µM | […] | 86% |  |  |  | 
4 | CC[C@H](NC)C(=O)N[C@@H]1C(=O)N2[C@@H](CC[C@@H]1CN)CC[C@H]2C(=O)NC(c1ccccc1)c1ccccc1 | 51.8 µM | 51.7 µM | 0.542 µM | 78% |  |  |  | 
5 | CC[C@H](N)C(=O)N[C@@H]1C(=O)N2[C@@H](CC[C@@H]1CO)CC[C@H]2C(=O)NC(c1ccccc1)c1ccccc1 | 6.5 µM | > 100 µM | 1.03 µM | 79% |  |  |  | 
6 | CCNCC[C@H]1CC[C@H]2CC[C@@H](C(=O)NC(c3ccccc3)c3ccccc3)N2C(=O)[C@H]1NC(=O)[C@H](CC)NC | 76.4 µM | > 100 µM | 1.3 µM | 90% |  |  |  | 
7 | CC[C@H](N)C(=O)N[C@@H]1C(=O)N2[C@@H](CC[C@@H]1CCN)CC[C@H]2C(=O)NC(c1ccccc1)c1ccccc1 | 25 µM | 85.2 µM | 12.9 µM | 75% | 0.086 µM |  |  | 
8 | CC[C@H](NC)C(=O)N[C@@H]1C(=O)N2[C@@H](CC[C@@H]1CCN)CC[C@H]2C(=O)NC(c1ccccc1)c1ccccc1 | 31 µM | > 100 µM | 2.3 µM | 86% |  |  |  | 
9 | CC[C@H](N)C(=O)N[C@@H]1C(=O)N2[C@@H](CC[C@@H]1CCNC(=O)c1ccccc1)CC[C@H]2C(=O)NC(c1ccccc1)c1ccccc1 | 50.7 µM | > 100 µM | 0.93 µM | 65% |  |  |  | 
10 | CC[C@H](NC)C(=O)N[C@@H]1C(=O)N2[C@@H](CC[C@@H]1CCNC(=O)c1ccccc1)CC[C@H]2C(=O)NC(c1ccccc1)c1ccccc1 | 32.6 µM | > 100 µM | 0.21 µM | 43% |  |  |  | 
11 | CC[C@H](N)C(=O)N[C@@H]1C(=O)N2[C@@H](CC[C@@H]1CCNC(=O)NCc1ccccc1)CC[C@H]2C(=O)NC(c1ccccc1)c1ccccc1 | 83.3 µM | > 100 µM | 10.8 µM | 65% |  |  |  | 
12 | CC[C@H](NC)C(=O)N[C@@H]1C(=O)N2[C@@H](CC[C@@H]1CCNCc1ccccc1)CC[C@H]2C(=O)NC(c1ccccc1)c1ccccc1 | 5.2 µM | 7.8 µM | 0.141 µM | 81% | 0.027 µM | Soluble | 0.11 µM | Soluble
13 | CC[C@H](NC)C(=O)N[C@@H]1C(=O)N2[C@@H](CC[C@@H]1CCNC(=O)NCc1ccccc1)CC[C@H]2C(=O)NC(c1ccccc1)c1ccccc1 | 52.2 µM | 83.5 µM | 1.2 µM | 51% |  |  |  | 
14 | CC[C@H](N)C(=O)N[C@@H]1C(=O)N2[C@@H](CC[C@@H]1CCNCc1ccccc1)CC[C@H]2C(=O)NC(c1ccccc1)c1ccccc1 | 15.4 µM | 39.2 µM | 0.4 µM |  |  |  |  | 
15 | CC[C@H](N)C(=O)N[C@@H]1C(=O)N2[C@@H](CC[C@@H]1CCO)CC[C@H]2C(=O)NC(c1ccccc1)c1ccccc1 | > 100 µM | > 100 µM | 1.8 µM |  |  |  |  | 
16 | CC[C@H](NC)C(=O)N[C@@H]1C(=O)N2[C@@H](CC[C@@H]1CCO)CC[C@H]2C(=O)NC(c1ccccc1)c1ccccc1 | 74.8 µM | > 100 µM | 0.173 µM |  |  |  |  | 
17 | CC[C@H](N)C(=O)N[C@@H]1C(=O)N2[C@@H](CC[C@@H]1CN)CC[C@H]2C(=O)NC(c1ccccc1)c1ccccc1 | 69.3 µM | > 100 µM | 6.03 µM | 93% |  |  |  | 
18 | CCNC[C@H]1CC[C@H]2CC[C@@H](C(=O)NC(c3ccccc3)c3ccccc3)N2C(=O)[C@H]1NC(=O)[C@@H](N)CC | 84 µM | > 100 µM | 0.286 µM | 81% |  |  |  | 
19 | CCNCC[C@H]1CC[C@H]2CC[C@@H](C(=O)NC(c3ccccc3)c3ccccc3)N2C(=O)[C@H]1NC(=O)[C@@H](N)CC | 62.8 µM | > 100 µM | 8 µM |  |  |  |  | 
20 | CC[C@H](N)C(=O)N[C@@H]1C(=O)N2[C@@H](CC[C@@H]1CNC(=O)NCc1ccccc1)CC[C@H]2C(=O)NC(c1ccccc1)c1ccccc1 | 51 µM | > 100 µM | 3.4 µM | 73% |  |  |  | 
21 | CC[C@H](N)C(=O)N[C@@H]1C(=O)N2[C@@H](CC[C@@H]1CNC(=O)c1ccccc1)CC[C@H]2C(=O)NC(c1ccccc1)c1ccccc1 | 36 µM | 80.1 µM |  | 81% |  |  |  | 
22 | CC[C@H](N)C(=O)N[C@@H]1C(=O)N2[C@@H](CC[C@@H]1CNCc1ccccc1)CC[C@H]2C(=O)NC(c1ccccc1)c1ccccc1 | 13.1 µM | 24.1 µM | 0.099 µM |  |  |  |  | 
